Results on five compounds are retold here after US11224223B2, “Feeding deterrence of pests such as Hemiptera, Lepidoptera and Coleoptera” (BEDOUKIAN RESEARCH, INC., priority 2012, dated 2022).

Common to all, as to format: in vivo
One data set deals with granary weevils. Description: Granary weevil test on treated wheat kernels. The following applies: 5% in isopropyl alcohol, 3 week period. How it is done: Ten replicates of 30 kernels of wheat were immersed into the test compound and allowed to dry for 24 hours. The grains were then transferred to a test container, and 10 granary weevils were released. Test containers were secured and left for a 3 week period. At the end of this time, the wheat grains were examined for developing larvae and damage by larvae. […] Ten additional replicates treated with isopropyl alcohol were prepared to serve as controls.

The next data set deals with saw tooth grain beetles. Briefly: Repellency of test compounds on grain beetles, treated corn kernels. The note with it: 5% in isopropyl alcohol, 3 week period. How it is done:
Ten replicates of 30 kernels of corn are immersed into the test compound and allowed to dry for 24 hours. The kernels are then transferred to a test container, and 10 saw tooth grain beetles are released. Test containers are secured and left for a 3 week period. At the end of this time, the […] grains are examined for feeding damage. […] Ten additional replicates treated with isopropyl alcohol are prepared to serve as controls.

The next data set relates to Codling Moth larvae. Briefly: Repellency as feeding deterrence and mortality in Codling Moth larvae on treated media. How it is done: Another test was designed to measure the repellency as feeding deterrence in Codling Moth larvae. The treatment was applied to the surface of a proprietary laboratory media in a tray with wells for each compound. The media was allowed to dry for 30-60 minutes so that larvae were not exposed to it as a liquid. One first instar codling moth larva was then placed on the treated media. The cover film was placed on the tray to prevent escapes. Ten additional replicates treated with a 57% ethanol solution were prepared to serve as controls. […] After the 24 hour reading, the larvae were extracted from the media to record any mortality.
Mortality observations were also made for the above protocol. The control was the 57% ethanol:43% water solution.

The subject of data set [1] is Euschistus heros-Neotropical Brown Stink Bugs. Briefly: Stink bug feeding damage on soybean pods. The note with it: 3% compound, soybean plants at R6 stage, 48 hours. How it is done:
To compare the feeding/resting preference of stink bug adults for different plant parts, 10 pots with soybean plants at the R6 (pod-filling) stage of development are used. 5 pots of soybeans are sprayed with 3% of treatment in a 2% Triton X:water solution and 5 pots of soybean are treated with 2% Triton X:water solution as controls. Thirty stink bugs are placed individually in each cage and allowed to feed for 48 hours. Insects are removed and plant parts are collected for visual analysis of damage. Feeding damage on the pods is counted for both treatments. The selective antifeeding rate (%) formula is [(C−T)/(C+T)]×100, and the non-selective antifeeding rate (%) formula is [(C−T)/C)]×100, where C and T are the numbers of feeding damages on the control and treated plant pods, respectively.

The subject of the next data set is sharpshooters. Briefly: Leafhopper repellency on citrus choice assays. The note with it: 3% compound; citrus seedlings; 100 sharpshooters per cage; control 50/50. From the text:
Leafhopper Repellency on Citrus Choice Assays Citrus seedlings are sprayed with either a 3% solution of repellent chemical in a 5%:95% ETOH:Water or only 5%:95% ETOH:Water as a control. Two seedlings are placed in a screen cage, either a treatment vs control tree or a control vs control tree. 100 sharpshooters are released into each cage. The number of sharpshooters choosing each leaf is counted for both choice tests. The number of sharpshooters choosing each treatment is compared to the control to determine if there is a repellent effect.

The next data set has as its system Dermestid spp. Description: Dermestid beetle feeding damage on silk fabric. The following applies: 3% compound; undyed silk disks; late instar larvae; 1 week. How it is done: Dermestid Beetle Feeding Damage on Silk Fabric
For feeding assays, 3% alcohol solutions of the tested compounds are prepared. Disks (4.0 cm in diameter) of undyed silk fabric are dipped in the test solutions or alcohol alone as a control. After the complete evaporation of the solvent, the disks are offered to 10 late instar larvae. All dishes are placed in an incubator. Four replicates are used for each chemical. After 1 week, the remaining uneaten area of each silk disk is measured using a scanner and software. The selective antifeeding rate (%) formula is [(C−T)/(C+T)]×100, and the non-selective antifeeding rate (%) formula is [(C−T)/C)]×100, where C and T are the areas consumed by the control and treated silk disks, respectively.

Another data set concerns Aphis gossypii. Description: Melon aphid repellency on leaf choice assays. The following applies: 3% compound in a Triton X:Water solution; n=100; control 50/50. From the text:
Melon Aphid Repellency on Leaf Choice Assays Aphis gossypii are maintained on squash plants. Individual aphids (n=100) are given the choice between leaves with and without repellent treatments. A separate group of aphids are given a choice between untreated vs. untreated leaves as a control. The number of aphids choosing each leaf is counted both choice tests. The number of aphids choosing each treatment is compared to the control to determine the repellent effect.

The next data set concerns psyllids. Description: Psyllid repellency on potato choice assays. The following applies: 3% compound; potato plants; 100 psyllids per cage; control 50/50. From the text:
Psyllid Repellency on Potato Choice Assays
Potato plants are sprayed with either a 3% solution of repellent chemical in a 5%:95% ETOH:Water or only 5%:95% ETOH:Water as a control. Two plants are placed in a screen cage, either a treatment vs control tree or a control vs control tree, 100 psyllids are released into each cage. The number of psyllids choosing each leaf is counted for both choice tests. The number of psyllids choosing each treatment is compared to the control to determine if there is a repellent effect.

Another data set has as its system Sitostroga cerealella. Description: Feeding repellent assay for Angoumois larva on treated rice. The following applies: 10% compound in a 5% Ethanol:95% water solution, third instar larvae, 1 week. How it is done: Feeding Repellent Assay for Angoumois Larva
(§1) One gram of rice is weighed and treated with 2% by weight of each test chemical or ethanol as a control for each treatment and replicate. The grains are allowed to dry and then weighed again. Treated or control rice grains are placed in a petri dish. Third instar larvae are starved for 8 h and gently introduced into the center of each compartment. 20 larva are screened per treatment, and each experiment is repeated three times. The weight of rice grains is measured again after 1 week. The selective antifeeding rate (%) formula is [(C−T)/(C+T)]×100, and the non-selective antifeeding rate (%) formula is [(C−T)/C)]×100, where C and T are the areas consumed by the control and treated leaf disks, respectively.

Data set [2] has as its system Leptinotarsa decemlineata-Colorado Potatoe Beetles. Description: Choice feeding assay on potato leaf disks. The following applies: 3% compound, larvae, 24 h. How it is done:
For choice feeding assays, 3% alcohol solutions of the tested compounds are prepared. Disks (4.0 cm in diameter) are cut from potato leaves and are dipped in the test solutions or alcohol alone as a control. After the complete evaporation of the solvent, the disks are offered to 10 larvae. Control and treated disks are placed at alternate corners in Petri dishes (150 by 20 mm) lined with moistened filter paper (choice test). All dishes are placed in an incubator. Four replicates and 40 larva are used for each chemical. In each replicate, the insects are allowed to feed ad libitum for 24 h at 24 C under a 16:8 (L:D) photoperiod. After 24 h, the remaining uneaten area of each potato leaf disk is measured using a scanner and software. The selective antifeeding rate (%) formula is [(C−T)/(C+T)]×100, and the non-selective antifeeding rate (%) formula is [(C−T)/C)]×100, where C and T are the areas consumed by the control and treated leaf disks, respectively.

A further data set concerns Plodia interpunctella. Description: Feeding repellent assay for Indian meal moth larva on treated rice. The note with it: 10% compound in a 5% Ethanol:95% water solution, third instar larvae, 1 week. On the procedure: as §1, with “Feeding Repellent Assay for Indian Meal Moth Larva One” for “One”
In a further data set the test system is Popillia japonica. Briefly: Japanese beetle feeding damage on basil. The following applies: 3% compound; basil leaf disks; adult beetle; 24 h. On the procedure:
Japanese Beetle Feeding Damage on Basil For choice feeding assays, 3% alcohol solutions of the tested compounds are prepared. Disks (4.0 cm in diameter) are cut from basil leaves and are dipped in the test solutions or alcohol alone as a control. After the complete evaporation of the solvent, the disks are offered to 1 adult beetle. All dishes are placed in an incubator. Four replicates are used for each chemical. After 24 h, the remaining uneaten area of each basil leaf disk is measured using a scanner and software. The selective antifeeding rate (%) formula is [(C−T)/(C+T)]×100, and the non-selective antifeeding rate (%) formula is [(C−T)/C)]×100, where C and T are the areas consumed by the control and treated leaf disks, respectively.

Another data set deals with Tineola spp. Description: Clothes moth feeding damage on silk fabric, choice test. The following applies: 3% compound; silk disks; late instar larvae; 24 hours; control 50/50. On the procedure:
For feeding assays, 3% alcohol solutions of the tested compounds are prepared. Disks (2.0 cm in diameter) of undyed silk fabric are dipped in the test solutions or alcohol alone as a control. After the complete evaporation of the solvent, the disks are presented in a choice test to 10 late instar Tineola spp. larvae. All dishes are placed in an incubator in the dark. Four replicates are used for each chemical. After 24 hours, the number of individuals choosing to feed on each disk are counted.

For data set [3], the system named is brown marmorated stink bugs (BMSB). Description: Repellency as feeding deterrence in brown marmorated stink bugs, treated filter paper with green bean. The note with it: compound at 3.5% in a 57% Ethanol:43% water solution; control 38%. How it is done:
A test was designed to measure the repellency as feeding deterrence in brown marmorated stink bugs (BMSB). Five replicates of 5 BMSBs were introduced into test arenas, containing one 60 mm×15 mm Petri dish with treated filter papers in which a food source (green bean) was attached, at the start of the test. The small Petri dishes containing the treated filter paper and food source were covered with a fitted Petri dish lid in between observation times, and were removed 5 minutes before each observation time to prevent stink bugs from feeding until sated. The distribution of the BMSBs was observed and documented hourly for 5 hours.

Turning to `CC1=CC(O)CC(CC(C)C)C1` (stereo not drawn) [3-Methyl-5-Isobutyl-2-Cyclohexenol], in the data set on granary weevils, the “Increased Mortality over Control Mortality” value stood at 93%. In addition, the entries for the “Increased Repellency vs. Control Repellency” value in the data set with granary weevils and in the data set on saw tooth grain beetles were 86% and 85%, respectively.
In the case of `CCCC1CC(=O)C=C(C)C1` (stereo not drawn) [3-Methyl-5-Propyl-2-Cyclohexenone], the “Repellency at 24 hours” value in the data set on Codling Moth larvae (compound at 3.5% in a 57% Ethanol:43% water solution, first instar larva, control 8%) turned out to be 21%. In the data set on Codling Moth larvae (in vivo), the “Increased Mortality over Control Mortality at 24 hours” value amounted to 1%. The “Increased Mortality over Control Mortality” value in the data set with granary weevils is recorded as 57%. The “Increased Repellency vs. Control Repellency” value is on record as 66% with granary weevils and 60% in the data set with saw tooth grain beetles.
As to `CCCCCCCC1CCCC(=O)O1` (stereo not drawn) [Delta-dodecalactone], the “% Antifeedent Activity” value in data set [1] is 80%; in the data set on Sitostroga cerealella, 70%; in the data set with Plodia interpunctella it was 70%. Further, the “Number of Psyllids Choosing each Treatment: Treated” value in the data set with sharpshooters and in the data set with psyllids was 20 throughout. Moreover, the “Number of Psyllids Choosing each Treatment: Untreated” value with sharpshooters and with psyllids was 80 each time. The “% Repellency” value (in the data set on Dermestid spp.; in [2]; with Popillia japonica) was 40% in each case. Also, in the data set with Aphis gossypii, the “Number of Aphids Choosing each Treatment: Treated” value was determined as 20. Further, in the data set with Aphis gossypii, the “Number of Aphids Choosing each Treatment: Untreated” value amounted to 80. Also, in the data set on Tineola spp., the “Individuals choosing to feed on each disk: Treated” value is 10. The “Individuals choosing to feed on each disk: Untreated” value (“Individuals choosing … Untreated” for short) with Tineola spp. is listed as 90.
For the compound `CCCCCC1C(=O)CCC1CC(=O)OC` (stereo not drawn) [Methyl Dihydrojasmonate], the figures for the “% Antifeedent Activity” value (in data set [1]; in the data set on Sitostroga cerealella; with Plodia interpunctella) were 90%, 60% and 60%, respectively. In addition, the “Number of Psyllids Choosing each Treatment: Treated” value with sharpshooters and in the data set with psyllids was 30 throughout. For the same compound, the “Number of Psyllids Choosing each Treatment: Untreated” value with sharpshooters and in the data set on psyllids was 70 each time. Besides, the “% Repellency” value (with Dermestid spp.; in data set [2]; in the data set with Popillia japonica) was 15% in each case. Moreover, in [3], the “Repellency averaged over 5 hours” value was found to be 90%. Besides, the “Number of Aphids Choosing each Treatment: Treated” value in the data set on Aphis gossypii was 30. Besides, the “Number of Aphids Choosing each Treatment: Untreated” value with Aphis gossypii came out at 70. Moreover, the “Individuals choosing to feed on each disk: Treated” value with Tineola spp. turned out to be 20. Moreover, the “Individuals choosing … Untreated” value with Tineola spp. was determined as 80.
Turning to `CCCCCC1C(O)CCC1CC(=O)OC` (stereo not drawn) [Methyl dihydrojasmolate], the “% Antifeedent Activity” value worked out at 90% in data set [1], 60% in the data set with Sitostroga cerealella and 60% in the data set on Plodia interpunctella. In addition, the “Number of Psyllids Choosing each Treatment: Treated” value with sharpshooters and with psyllids was 30 throughout. Further, the “Number of Psyllids Choosing each Treatment: Untreated” value in the data set with sharpshooters and in the data set on psyllids was 70 in each case. Besides, the “% Repellency” value (with Dermestid spp.; in data set [2]; in the data set on Popillia japonica) was 15% throughout. Moreover, the “Number of Aphids Choosing each Treatment: Treated” value with Aphis gossypii is listed as 30. Further, the “Number of Aphids Choosing each Treatment: Untreated” value in the data set with Aphis gossypii came to 70. For the same compound, the “Individuals choosing to feed on each disk: Treated” value in the data set on Tineola spp. is reported as 20. The “Individuals choosing … Untreated” value with Tineola spp. is recorded as 80.
